ChEMBL document CHEMBL5050850, “Compositions and methods of using the same for treatment of neurodegenerative and mitochondrial disease” (2020)

Experiments:
[1] = Induction of mitophagy in human HeLa MKYP cells treated with FCCP/oligomycin for 6 hrs and measured by FACS analysis; type: functional, cell-based
HeLa [2] = assay: Cytotoxicity against human HeLa MKYP cells assessed as percentage of DAPI-positive cells at 50 uM and measured by DAPI staining method; type: toxicity, cell-based
HeLa [3] = assay: Cytotoxicity against human HeLa MKYP cells assessed as cell death at 25 uM treated with FCCP/oliogmycin and measured DAPI staining method assay relative to control; type: toxicity, cell-based
HeLa [4] = assay: Cytotoxicity against human HeLa MKYP cells assessed as cell death at 25 uM and measured DAPI staining method assay relative to control; type: toxicity, cell-based

Structure (SMILES) | EC50 [1] [µM] | Activity (HeLa [2]) [%] | Activity (HeLa [3]) [%] | Activity (HeLa [4]) [%]
c1ncc(CNc2ncnc3[nH]c(C4CC4)nc23)cn1 | > 50 | 7.1 | – | –
Cc1nc2c(N[C@@H](C)c3ccccc3)ncnc2[nH]1 | 4.6 | 31.9 | – | –
COc1ncccc1CNc1ncnc2[nH]c(C(F)(F)F)cc12 | – | 7.6 | – | –
CN(C)C1CCC(CNc2ncnc3[nH]c(C(F)(F)F)cc23)CC1 (stereo unspecified) | > 50 | 5.2 | – | –
C[C@@H](Nc1ncnc2[nH]c(C(F)(F)F)cc12)c1cncnc1 | 21.6 | 22.9 | – | –
FC(F)(F)c1cc2c(NC3COCc4ccccc43)ncnc2[nH]1 (stereo unspecified) | > 50 | 42.9 | – | –
c1ccc2c(c1)OCC[C@H]2Nc1ncnc2[nH]cnc12 | > 50 | 16 | – | –
CCCCNc1ncnc2c1cc(C(F)(F)F)n2C(C)=O | > 50 | 36.6 | – | –
CCCCNc1ncnc2[nH]c(C3CC3)nc12 | 18.8 | 16.2 | – | –
CN(C)[C@H]1CCc2ccccc2[C@@H]1Nc1ncnc2[nH]c(C(F)(F)F)cc12 | 0.81 | 79.3 | 79.29 | 4.33
CN1CCC(Nc2ncnc3[nH]c(C(F)(F)F)cc23)c2ccccc21 (stereo unspecified) | 1.81 | 28.1 | – | –
O=S1(=O)Cc2ccccc2C(Nc2ncnc3[nH]c(C(F)(F)F)cc23)C1 (stereo unspecified) | > 50 | 13.2 | – | –
CC(Nc1ncnc2[nH]cnc12)c1ccccc1 (stereo unspecified) | 2.69 | 18.2 | – | –
CCCCNc1ncnc2[nH]c(C3CCC3)nc12 | > 50 | 6.1 | – | –
C[C@H](Nc1ncnc2[nH]c(C(F)(F)F)cc12)c1ccccc1 | 0.02 | 90.8 | – | –
OC[C@H](Nc1ncnc2[nH]cnc12)c1ccccc1 | 3.48 | 14.5 | – | –
FC(F)(F)c1cc2c(NCc3cncnc3)ncnc2[nH]1 | 11.7 | 1.7 | – | –
COc1ccc(CNc2ncnc3[nH]c(C(F)(F)F)cc23)c(OC)c1 | 2.08 | 42.6 | – | –
CO[C@H]1COc2ccccc2[C@@H]1Nc1ncnc2[nH]c(C(F)(F)F)cc12 | 4 | 15.9 | 15.865 | 3.66
OC[C@H](Nc1ncnc2[nH]c(C(F)(F)F)cc12)c1ccccc1 | 14.7 | 30.4 | – | –
c1ccc2c(c1)CC[C@@H]2Nc1ncnc2[nH]cnc12 | 4.38 | 16.2 | – | –
FC(F)(F)c1cc2c(NCc3cccc(Cl)c3)ncnc2[nH]1 | – | 20.3 | – | –

Structure (SMILES) | EC50 [1] [µM] | Activity (HeLa [2]) [%] | Activity (HeLa [3]) [%] | Activity (HeLa [4]) [%]
c1coc(CNc2ncnc3[nH]c(C4CCC4)nc23)c1 | > 50 | 3 | – | –
CC(CNc1ncnc2[nH]cnc12)c1ccccc1 (stereo unspecified) | 3.6 | 28.9 | – | –
FC(F)(F)c1cc2c(NCc3ccncn3)ncnc2[nH]1 | – | 1.5 | – | –
c1coc(CNc2ncnc3[nH]cnc23)c1 [KINETIN] | – | 4.9 | – | –
Oc1ccc2c(c1)CCC[C@H]2Nc1ncnc2[nH]c(C(F)(F)F)cc12 | 4.38 | 11 | 11 | 3.32
FC(F)(F)c1cc2c(N[C@@H]3COc4ccccc43)ncnc2[nH]1 | 14.9 | 29.2 | – | –
C[C@H](Nc1ncnc2[nH]c(C3CC3)nc12)c1ccccc1 | 3.17 | 27.6 | – | –
COc1ccccc1CNc1ncnc2[nH]c(C(F)(F)F)cc12 | 2 | 24.7 | – | –
Fc1cccc(CNc2ncnc3[nH]c(C(F)(F)F)cc23)c1Cl | – | 4.5 | – | –
CO[C@H]1COc2ccccc2[C@H]1Nc1ncnc2[nH]c(C(F)(F)F)cc12 | 13.3 | 3.6 | 3.555 | 2.49
c1ccc2c(c1)OCC[C@@H]2Nc1ncnc2[nH]cnc12 | 1.69 | 17 | – | –
COc1ccc2c(c1)[C@@H](Nc1ncnc3[nH]c(C(F)(F)F)cc13)CCC2 | 4 | 3.2 | 3.18 | 1.18
C[C@@H](Nc1ncnc2[nH]c(C(F)(F)F)cc12)c1ccccc1 | 3.1 | 63.7 | – | –
Cc1nc2c(N[C@H](C)c3ccccc3)ncnc2[nH]1 | > 50 | 9.7 | – | –
FC(F)(F)c1cc2c(N[C@H]3COc4ccccc43)ncnc2[nH]1 | 1.4 | 22.8 | – | –
c1ccc(CCNc2ncnc3[nH]cnc23)cc1 | 2.26 | 19.7 | – | –
OC[C@@H](Nc1ncnc2[nH]c(C(F)(F)F)cc12)c1ccccc1 | 4.4 | 30.3 | – | –
FC(F)(F)c1cc2c(NC3CCCc4ccccc43)ncnc2[nH]1 (racemic) | > 50 | 27.1 | – | –
Fc1cc(Cl)cc(CNc2ncnc3[nH]c(C(F)(F)F)cc23)c1 | – | 4.8 | – | –
c1ccc2c(c1)CC[C@H]2Nc1ncnc2[nH]cnc12 | > 50 | 10.3 | – | –
Clc1cccc(CNc2ncnc3nc[nH]c23)c1 | 16 | 12.5 | – | –
C[C@@H](Nc1ncnc2[nH]c(C3CC3)nc12)c1ccccc1 | > 50 | 12.3 | – | –

Structure (SMILES) | EC50 [1] [µM] | Activity (HeLa [2]) [%] | Activity (HeLa [3]) [%] | Activity (HeLa [4]) [%]
c1ccc(C2(Nc3ncnc4[nH]cnc34)CC2)cc1 | > 50 | 13.4 | – | –
CCCCNc1ncnc2[nH]c(C(F)(F)F)c(C)c12 | > 50 | 11.9 | – | –
FC(F)(F)c1cc2c(N[C@H]3CCOc4ccccc43)ncnc2[nH]1 | 5.6 | 37.7 | – | –
COc1cc(CNc2ncnc3[nH]c(C4CC4)nc23)ccn1 | > 50 | 7.1 | – | –
c1ccc2c(c1)OCC2Nc1ncnc2[nH]cnc12 (stereo unspecified) | 6.1 | 21 | – | –
COc1ccccc1CNc1ncnc2nc[nH]c12 | 10.8 | 12.4 | – | –
FC(F)(F)c1cc2c(NCc3cnccn3)ncnc2[nH]1 | – | 0.9 | – | –
C[C@H](Nc1ncnc2[nH]c(C(F)(F)F)cc12)c1cncnc1 | 3.1 | 23.7 | – | –
OC[C@@H](Nc1ncnc2[nH]cnc12)c1ccccc1 | > 50 | 8.9 | – | –
CCC(Nc1ncnc2[nH]c(C(F)(F)F)cc12)c1cncnc1 (stereo unspecified) | 18.8 | 15.9 | – | –
CC(Nc1ncnc2[nH]c(C3CC3)nc12)c1ccccc1 (stereo unspecified) | 6.3 | 18.3 | – | –
c1ncc(CNc2ncnc3[nH]cnc23)cn1 | 4.4 | 5.3 | – | –
FC(F)(F)c1cc2c(NC3CCCc4ncncc43)ncnc2[nH]1 (stereo unspecified) | > 50 | 12 | – | –
C[C@H](Nc1ncnc2[nH]cnc12)c1ccccc1 | 2 | 11.7 | – | –
FC(F)(F)c1cc2c(NC3CCN(Cc4ccccc4)CC3)ncnc2[nH]1 | 21.4 | 43.9 | – | –
C[C@@H](Nc1nccc2[nH]cnc12)c1ccccc1 | > 50 | 7.6 | – | –
COc1ncc(CNc2ncnc3[nH]c(C(F)(F)F)cc23)cn1 | 10.6 | 5.8 | – | –
C[C@@H](Nc1ncnc2[nH]cnc12)c1ccccc1 | 47.4 | 10.1 | – | –
FC(F)(F)c1cc2c(NC3CCOc4ccccc43)ncnc2[nH]1 (stereo unspecified) | 3.24 | 22.3 | – | –
CC(C)[C@@H](Nc1ncnc2[nH]c(C(F)(F)F)cc12)c1cncnc1 | 6.9 | 6.8 | – | –
